# Laboratory results as given in ChEMBL document CHEMBL3992488, “Anticancer agents interacting with membrane glucose transporters” (Medchemcomm, 2016).
# Substitutions are numbered along the chain they refer to. pIC50, pKi: −log10 of the molar value.
# Assays:
# [1] = molecular target: T1, Solute carrier family 2, facilitated glucose transporter member 4 (Homo sapiens, UniProt P14672); assay: Inhibition of human GLUT4 expressed in CHO cells assessed as reduction in glucose uptake; format: cell-based
# T1 sequence (P14672 whole entry): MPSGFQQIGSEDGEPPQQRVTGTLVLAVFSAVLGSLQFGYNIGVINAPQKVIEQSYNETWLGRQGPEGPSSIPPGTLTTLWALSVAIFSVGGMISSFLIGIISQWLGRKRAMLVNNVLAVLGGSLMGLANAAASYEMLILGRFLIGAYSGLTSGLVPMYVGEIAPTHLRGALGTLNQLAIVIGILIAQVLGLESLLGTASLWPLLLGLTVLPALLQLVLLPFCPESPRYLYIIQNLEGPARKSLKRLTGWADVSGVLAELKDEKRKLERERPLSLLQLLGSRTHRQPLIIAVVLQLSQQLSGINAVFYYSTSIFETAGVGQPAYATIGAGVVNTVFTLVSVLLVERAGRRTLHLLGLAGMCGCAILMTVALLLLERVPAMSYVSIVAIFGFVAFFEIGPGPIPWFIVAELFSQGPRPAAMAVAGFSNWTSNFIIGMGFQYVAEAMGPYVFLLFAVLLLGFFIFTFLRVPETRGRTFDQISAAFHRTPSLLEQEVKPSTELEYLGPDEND
# [2] = molecular target: T2, Solute carrier family 2, facilitated glucose transporter member 1 (Homo sapiens, UniProt P11166); assay: Inhibition of human GLUT1 expressed in human DLD1 cells assessed as reduction in glucose uptake; format: cell-based
# T2 sequence (P11166 whole entry): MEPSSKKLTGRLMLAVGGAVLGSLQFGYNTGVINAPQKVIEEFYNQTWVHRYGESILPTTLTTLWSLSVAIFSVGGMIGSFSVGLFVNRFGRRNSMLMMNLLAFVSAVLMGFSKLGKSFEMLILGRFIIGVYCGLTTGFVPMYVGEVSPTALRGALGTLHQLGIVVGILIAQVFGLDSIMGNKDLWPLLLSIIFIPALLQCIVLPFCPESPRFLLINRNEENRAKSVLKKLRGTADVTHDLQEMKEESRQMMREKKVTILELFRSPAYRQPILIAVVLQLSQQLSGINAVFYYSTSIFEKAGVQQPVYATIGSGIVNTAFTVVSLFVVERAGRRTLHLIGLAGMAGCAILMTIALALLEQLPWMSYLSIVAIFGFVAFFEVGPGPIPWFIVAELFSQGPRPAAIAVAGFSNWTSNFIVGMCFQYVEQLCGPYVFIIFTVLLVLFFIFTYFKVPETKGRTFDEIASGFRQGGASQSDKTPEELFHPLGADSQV
# [3] = system: RCC4; assay: Growth inhibition of VHL-deficient human RCC4 cells by XTT assay; format: functional, cell-based
# [4] = molecular target: T3, Solute carrier family 2, facilitated glucose transporter member 2 (Homo sapiens, UniProt P11168); assay: Inhibition of human GLUT2 expressed in Xenopus laevis oocytes assessed as reduction in [3H] 2-deoxyglucose uptake by scintillation spectrometric method; format: cell-based
# T3 sequence (P11168 whole entry): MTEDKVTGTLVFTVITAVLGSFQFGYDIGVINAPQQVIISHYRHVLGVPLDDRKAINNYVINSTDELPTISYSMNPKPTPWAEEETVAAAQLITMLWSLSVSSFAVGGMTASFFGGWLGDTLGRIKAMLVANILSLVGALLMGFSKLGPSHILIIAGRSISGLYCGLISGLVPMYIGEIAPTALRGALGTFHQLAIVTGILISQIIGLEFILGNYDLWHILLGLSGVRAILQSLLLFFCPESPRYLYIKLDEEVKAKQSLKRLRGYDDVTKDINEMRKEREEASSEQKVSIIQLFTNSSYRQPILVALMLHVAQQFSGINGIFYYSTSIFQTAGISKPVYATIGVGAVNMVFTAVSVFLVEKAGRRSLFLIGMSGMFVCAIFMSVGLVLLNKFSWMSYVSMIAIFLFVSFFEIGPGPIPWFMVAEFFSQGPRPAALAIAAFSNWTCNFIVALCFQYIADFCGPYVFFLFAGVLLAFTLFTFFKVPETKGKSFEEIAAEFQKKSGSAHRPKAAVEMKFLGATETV
# [5] = molecular target: T4, Solute carrier family 2, facilitated glucose transporter member 4 (Rattus norvegicus, UniProt P19357); assay: Competitive inhibition of GLUT4 in Wistar rat adipocytes assessed as reduction in insulin-stimulated 3-O-[3H]methyl-D-glucose uptake measured for 30 secs by Lineweaver-Burk plot analysis; format: cell-based
# T4 sequence (P19357 whole entry): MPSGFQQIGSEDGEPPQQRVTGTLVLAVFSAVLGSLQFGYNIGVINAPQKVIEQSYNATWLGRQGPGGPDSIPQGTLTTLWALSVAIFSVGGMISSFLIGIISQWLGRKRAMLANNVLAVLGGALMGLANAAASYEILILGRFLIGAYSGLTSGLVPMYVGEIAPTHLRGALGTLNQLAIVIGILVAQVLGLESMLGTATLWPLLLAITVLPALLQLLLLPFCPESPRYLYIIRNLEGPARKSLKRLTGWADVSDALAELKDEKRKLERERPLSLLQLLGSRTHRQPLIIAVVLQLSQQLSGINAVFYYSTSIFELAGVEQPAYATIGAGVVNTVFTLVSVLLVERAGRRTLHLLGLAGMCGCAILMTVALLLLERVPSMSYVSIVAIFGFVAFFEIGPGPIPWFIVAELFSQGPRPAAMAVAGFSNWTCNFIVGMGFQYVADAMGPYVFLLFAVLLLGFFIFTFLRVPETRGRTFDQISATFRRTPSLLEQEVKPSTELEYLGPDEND
# [6] = molecular target: T3, Solute carrier family 2, facilitated glucose transporter member 2; assay: Inhibition of human GLUT2 expressed in Xenopus laevis oocytes assessed as reduction in [14C]fructose uptake by scintillation spectrometric method; format: cell-based
# [7] = system: PC-3; assay: Cytotoxicity against human PC3 cells after 48 hrs by SRB assay; format: functional, cell-based; conditions: PC-3, 48 h
# [8] = molecular target: T2, Solute carrier family 2, facilitated glucose transporter member 1; assay: Inhibition of GLUT1 in human MCF7 cells assessed as reduction in [3H]-DG uptake pretreated for 20 mins followed by [3H]-DG addition measured after 6 mins by liquid scintillation counting method; format: cell-based
# [9] = molecular target: T2, Solute carrier family 2, facilitated glucose transporter member 1; assay: Inhibition of GLUT1-mediated glucose uptake in human A549 cells assessed as reduction in ATP synthesis up to 30 mins in presence of mitochondrial function blocker antimycin A; format: cell-based
# [10] = molecular target: T2, Solute carrier family 2, facilitated glucose transporter member 1; assay: Non-competitive inhibition of GLUT1-mediated facilitative uptake of [3H]-2-deoxy-D-glucose in human erythrocyte membranes; format: cell membranes
# [11] = molecular target: T2, Solute carrier family 2, facilitated glucose transporter member 1; assay: Inhibition of GLUT1 (unknown origin)-mediated glucose uptake expressed in CHO-K1 cells assessed as reduction in ATP synthesis up to 30 mins in presence of mitochondrial function blocker antimycin A; format: cell-based
# [12] = molecular target: T2, Solute carrier family 2, facilitated glucose transporter member 1; assay: Mixed type non-competitive inhibition of glucose displaceable binding of [4-3H]cytochalasin B to GLUT1 in human erythrocyte membranes after 10 mins; format: cell membranes
# [13] = molecular target: T5, Solute carrier family 2, facilitated glucose transporter member 4 (Mus musculus, UniProt P14142); assay: Competitive inhibition of GLUT4 in mouse 3T3L1 cells assessed as reduction in insulin-stimulated [3H]-2-deoxy-D-glucose uptake preincubated for 20 mins followed by measured for [3H]-2-deoxy-D-glucose addition measured after 1 to 10 mins by Lineweaver-Burk plot analysis; format: cell-based
# T5 sequence (P14142 whole entry): T4 sequence (P19357 whole entry) with E11D, Q17R, I208L, L218I, L273M, L316S, E320G, S379A, R467K, T482A
# [14] = molecular target: T2, Solute carrier family 2, facilitated glucose transporter member 1; assay: Inhibition of GLUT1-mediated [14C]glucose uptake in human erythrocytes; format: cell-based
# [15] = species: Mus musculus; assay: Inhibition of PI3K in mouse 3T3L1 cells assessed as reduction in insulin-stimulated GLUT4 translocation by measuring reduction in [1-14C]-2-deoxy-D-glucose uptake at 6 uM pretreated for 3 days followed by insulin stimulation for 10 mins and subsequent addition of [1-14C]-2-deoxy-D-glucose measured after 10 mins relative to control; format: cell-based
# [16] = system: MCF7; assay: Cytotoxicity against human MCF7 cells assessed as growth inhibition at 100 uM after 24 hrs by CellTiter 96 AQueous Non-Radioactive assay relative to control; format: functional; conditions: MCF7, 24 h, read-out: GI
# [17] = species: Homo sapiens; assay: Inhibition of PI3K in human MCF7 cells assessed as reduction in insulin-stimulated GLUT4 translocation by measuring reduction in [1-14C]-2-deoxy-D-glucose uptake at 100 uM pretreated for 15 mins followed by insulin stimulation for 10 mins and subsequent addition of [1-14C]-2-deoxy-D-glucose measured after 10 mins relative to control; format: cell-based
# [18] = Inhibition of PI3K in human U937 cells assessed as reduction in GLUT4 translocation by measuring reduction in 2-[1,2-3H(N)]deoxy-D-glucose uptake after 3 mins by scintillation spectrometric method; format: cell-based; conditions: U-937
# [19] = molecular target: T6, Solute carrier family 2, facilitated glucose transporter member 1 (Homo sapiens) (UniProt P11166); assay: Inhibition of GLUT1 in human HT1080 cells assessed as reduction in [3H]2-deoxy-D-glucose uptake at 10 uM preincubated for 30 mins followed by [3H]2-deoxy-D-glucose addition measured after 60 mins by microbeta scintillation counting method relative to control; format: cell-based
# T6 sequence (whole entry): T2 sequence (P11166 whole entry)
# [20] = Non-competitive inhibition of glucose transporter in HTR-8/SVneo cells assessed as reduction in [3H]DG uptake preincubated for 20 mins followed by [3H]DG addition after 10 mins by liquid scintillation counting method; format: cell-based; conditions: Homo sapiens
# [21] = molecular target: T2, Solute carrier family 2, facilitated glucose transporter member 1; assay: Inhibition of GLUT1 in human A431 cells assessed as reduction in 2-[1,2-3H]deoxy-D-glucose uptake measured after 30 mins by liquid scintillation counting method; format: cell-based
# [22] = molecular target: T2, Solute carrier family 2, facilitated glucose transporter member 1; assay: Competitive inhibition of GLUT1 (unknown origin) expressed in CHO cells assessed as reduction in 2-[1,2-3H]deoxy-D-glucose uptake measured for 30 secs by double reciprocal plot analysis; format: cell-based
# [23] = molecular target: T5, Solute carrier family 2, facilitated glucose transporter member 4; assay: Inhibition of GLUT4 in mouse 3T3L1 cells assessed as reduction in insulin-stimulated 2-deoxy-D-[14C]glucose uptake; format: cell-based
# [24] = molecular target: T2, Solute carrier family 2, facilitated glucose transporter member 1; assay: Competitive inhibition of glucose displaceable binding of [4-3H]cytochalasin B to GLUT1 in human erythrocyte membranes after 10 mins by double reciprocal plot analysis; format: cell membranes
# [25] = molecular target: T2, Solute carrier family 2, facilitated glucose transporter member 1; assay: Competitive inhibition of GLUT1 in human HL60 cells assessed as reduction in 2-[1,2-3H]deoxy-D-glucose uptake measured for 30 secs by double reciprocal plot analysis; format: cell-based
smiles,measurement,setting,value
COc1ccc(CC(=O)N[C@@H](Cc2ccccc2Br)C(=O)N[C@@H](C)c2ccccc2)cc1,pIC50,[1],7.05
same,pIC50,[2],6.85
C[C@H](NC(=O)[C@H](Cc1ccc(F)cc1)NC(=O)Cc1cccc(O)c1)c1ccccc1,pIC50,[1],6.71
same,pIC50,[2],6.57
CC(C)(C)c1ccc(S(=O)(=O)NCc2ccc(C(=O)Nc3cccnc3)cc2)cc1,pIC50,[3],5.10
O=c1c(O)c(-c2cc(O)c(O)c(O)c2)oc2cc(O)cc(O)c12 [MYRICETIN],pIC50,[4],4.77 to 4.92
same,pKi,[5],4.47
same,pIC50,[6],4.77 to 4.92
O=C1C[C@@H]2/C(=C(O)\C=C\c3ccccc3)C(=O)C=C[C@@H]2O1 [CRYPTOCARYONE],pIC50,[7],5.80
O=c1c(O)c(-c2ccc(O)cc2)oc2cc(O)cc(O)c12 [KAEMPFEROL],pIC50,[8],5.40
CCOC(=O)[C@@]12CCCCC/C=C\1N(Cc1cccc3ccccc13)C(=O)[C@H]2CC(=O)N1CCN(C(=O)c2ccco2)CC1,pIC50,[9],5.00
same,pKi,[10],5.92
same,pIC50,[11],5.70
Cc1cc2c(C(C)C)c(O)c(O)c(C=O)c2c(O)c1-c1c(C)cc2c(C(C)C)c(O)c(O)c(C=O)c2c1O [GOSSYPOL],pKi,[12],4.70
COc1cc([C@H]2Oc3cc([C@H]4Oc5cc(O)cc(O)c5C(=O)[C@@H]4O)ccc3O[C@@H]2CO)ccc1O [SILYBIN A],pKi,[13],4.22
COc1cc([C@H]2Oc3cc(-c4oc5cc(O)cc(O)c5c(=O)c4O)ccc3O[C@@H]2CO)ccc1O,pKi,[13],3.94
O=C(CCCc1ccc(N(CCCl)CCCl)cc1)OC[C@H]1OC(O)[C@H](O)[C@@H](O)[C@@H]1O (stereo not given in full),pIC50,[14],4.19
O=c1c(O)c(-c2ccc(O)c(O)c2)oc2cc(O)cc(O)c12 [QUERCETIN],pIC50,[4],4.77 to 4.92
same,pKi,[5],4.80
same,pIC50,[6],4.77 to 4.92
O=C1C[C@@H](c2ccc(O)cc2)Oc2cc(O)cc(O)c21 [NARINGENIN],inhibition,[15],20%
same,inhibition of growth at 100 µM,[16],20%
same,inhibition,[17],50%
same,pIC50,[18],4.30
CC(C)NC(=O)COc1cccc(-c2nc(Nc3ccc4[nH]ncc4c3)c3ccccc3n2)c1,inhibition,[19],> 90%
COc1cc(O)c(CC=C(C)C)c(O)c1C(=O)/C=C/c1ccc(O)cc1 [XANTHOHUMOL],pIC50,[20],5.45
C/C=C(\C)[C@H](O[C@@H]1O[C@H](CO)[C@@H](O)[C@H](O)[C@H]1O)[C@H](C)/C=C(C)/C=C/C/C(C)=C/Cc1nc(OC)c(OC)c(O)c1C,pIC50,[21],8.31
CS(=O)(=O)O[C@H]1[C@H](O)[C@@H](O)C(O)O[C@@H]1CO (stereo not given in full),pIC50,[14],1.49
CCOC(=O)[C@@]12CN(C(=O)OC(C)(C)C)CC=C1N(CCc1ccc(OC)c(OC)c1)C(=O)[C@H]2CC(=O)NCc1cccc2ccccc12,pIC50,[9],5.52
same,pKi,[10],6.10
same,pIC50,[11],6.00
O=c1c(-c2ccc(O)cc2)coc2cc(O)cc(O)c12 [GENISTEIN],pKi,[22],5.15
same,pIC50,[23],4.70
same,pKi,[24],5.15
same,pKi,[25],5.15
